Reference: patent US12138272B2, “Methods and compositions for treating amyotrophic lateral sclerosis” (Amylyx Pharmaceuticals, Inc., priority 2022, dated 2024)
Values after ≈ are worked out from the molar mass of the structure shown. “Also recorded” adds a separate entry of the source. Marks after values point to notes of the source that are not given here.

Key:
BSEP [1] = molecular target: T1, BSEP (Homo sapiens, UniProt O95342); experiment: in vitro
BSEP [2] = molecular target: T1, BSEP; experiment: ATP-dependent uptake of test article by BSEP-transfected Sf9 membrane vesicles (substrate assessment); conditions: for substrate of BSEP (conclusion in words): criteria ≥2-fold ATP-dependent uptake and >50% inhibition by selective inhibitor
BSEP [3] = molecular target: T1, BSEP; experiment: Inhibition of 3H-taurocholic acid uptake by BSEP membrane vesicles (inhibitor assessment); conditions: for inhibitor of BSEP (conclusion in words): criterion >25% concentration-dependent inhibition of probe substrate uptake; for ATP-Dependent Uptake Activity of 3H-taurocholic acid / Signal-to-Noise Ratio / Uptake Activity of 3H-taurocholic acid, Mg-AMP / Uptake Activity of 3H-taurocholic acid, Mg-ATP: 3H-taurocholic acid 1 μM
[4] = Solubility in stock solvent and assay buffers
[5] = test article 1 μM + cyclosporine 20 μM
[6] = test article 10 μM + cyclosporine 20 μM
[7] = assay buffers, aqueous buffer, kinetic from dmso stock
[8] = methanol, organic solvent or mixture

T1 sequence (O95342 whole entry): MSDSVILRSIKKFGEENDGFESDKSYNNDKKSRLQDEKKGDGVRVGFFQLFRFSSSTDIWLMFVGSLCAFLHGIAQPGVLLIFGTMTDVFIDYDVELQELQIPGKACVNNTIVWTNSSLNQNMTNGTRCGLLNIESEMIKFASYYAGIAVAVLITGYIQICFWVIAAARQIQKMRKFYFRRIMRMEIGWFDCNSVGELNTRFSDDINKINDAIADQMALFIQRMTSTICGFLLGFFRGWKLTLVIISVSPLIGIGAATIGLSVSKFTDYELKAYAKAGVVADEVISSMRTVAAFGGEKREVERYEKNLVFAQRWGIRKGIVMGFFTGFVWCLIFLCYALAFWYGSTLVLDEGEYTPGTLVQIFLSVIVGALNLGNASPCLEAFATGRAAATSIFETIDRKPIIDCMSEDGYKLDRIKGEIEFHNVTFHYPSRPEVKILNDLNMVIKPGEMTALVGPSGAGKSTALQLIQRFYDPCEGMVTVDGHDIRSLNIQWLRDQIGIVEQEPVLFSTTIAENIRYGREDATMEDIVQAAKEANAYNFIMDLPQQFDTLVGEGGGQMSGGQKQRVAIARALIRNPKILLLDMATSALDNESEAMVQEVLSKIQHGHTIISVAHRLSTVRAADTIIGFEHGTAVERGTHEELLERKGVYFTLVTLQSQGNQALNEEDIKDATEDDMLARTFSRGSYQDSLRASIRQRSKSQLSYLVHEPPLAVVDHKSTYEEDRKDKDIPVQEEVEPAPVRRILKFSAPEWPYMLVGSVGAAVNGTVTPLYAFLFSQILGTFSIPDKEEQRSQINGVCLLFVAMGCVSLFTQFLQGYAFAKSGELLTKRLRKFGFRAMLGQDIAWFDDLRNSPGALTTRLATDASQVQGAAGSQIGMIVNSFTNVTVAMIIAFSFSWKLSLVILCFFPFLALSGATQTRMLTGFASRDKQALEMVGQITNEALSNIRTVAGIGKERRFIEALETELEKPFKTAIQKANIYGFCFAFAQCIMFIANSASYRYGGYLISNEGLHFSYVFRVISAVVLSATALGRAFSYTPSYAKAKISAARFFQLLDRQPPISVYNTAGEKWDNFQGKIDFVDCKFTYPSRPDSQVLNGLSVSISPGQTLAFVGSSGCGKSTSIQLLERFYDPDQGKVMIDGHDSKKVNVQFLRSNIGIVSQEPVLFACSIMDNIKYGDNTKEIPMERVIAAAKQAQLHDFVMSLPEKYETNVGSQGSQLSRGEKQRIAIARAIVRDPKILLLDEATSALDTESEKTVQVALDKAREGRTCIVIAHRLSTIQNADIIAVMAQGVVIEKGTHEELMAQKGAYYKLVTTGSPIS

Compound: C[C@H](CCC(=O)NCC(=O)O)[C@H]1CC[C@H]2[C@@H]3[C@@H](O)C[C@@H]4C[C@H](O)CC[C@]4(C)[C@H]3CC[C@]12C [Glycoursodeoxycholic acid]
- activity at 30 min, 10 μM (BSEP [1]): 48.3%
- activity at 30 min, 100 μM (BSEP [1]): 10.4%
- potency estimated from few doses at 30 min (BSEP [1]): < 10 µM
- ATP-Dependent Uptake Activity of test article (BSEP [2]; test article 1 μM): 11.2 pmol/minute/mg protein
- Uptake Activity of test article, Mg-AMP (BSEP [2]; test article 1 μM): BLQ
- Uptake Activity of test article, Mg-ATP (BSEP [2]; test article 1 μM): 11.2 pmol/minute/mg protein
- Uptake Activity of test article, Mg-AMP (BSEP [2]; [5]): BLQ
- Uptake Activity of test article, Mg-ATP (BSEP [2]; [5]): BLQ
- ATP-Dependent Uptake Activity of test article (BSEP [2]; test article 10 μM): 14.2 pmol/minute/mg protein
- Uptake Activity of test article, Mg-AMP (BSEP [2]; test article 10 μM): BLQ
- Uptake Activity of test article, Mg-ATP (BSEP [2]; test article 10 μM): 14.2 pmol/minute/mg protein
- ATP-Dependent Uptake Activity of test article (BSEP [2]; [6]): 0.00^b pmol/minute/mg protein
- Uptake Activity of test article, Mg-AMP (BSEP [2]; [6]): 6.93 pmol/minute/mg protein
- Uptake Activity of test article, Mg-ATP (BSEP [2]; [6]): BLQ
- ATP-dependent BSEP uptake activity relative to AMP uptake (BSEP [2]; test article 1 and 10 μM): > 2 fold
- remaining BSEP activity after cyclosporine A treatment (BSEP [2]; test article 1 and 10 μM + cyclosporine A 20 μM): No remaining BSEP activity
- substrate of BSEP (conclusion in words) (BSEP [2]; test article 1 and 10 μM): a substrate of BSEP transporters
- substrate of BSEP (conclusion in words) (BSEP [2]; test article 1 and 10 μM, listed as glycoursodeoxycholic acid): a substrate of BSEP
- inhibition of test article uptake by cyclosporine A (BSEP [2]; test article 1 and 10 μM, cyclosporine A 20 μM): inhibited by cyclosporine A
- inhibitor of BSEP (conclusion in words) (BSEP [3]): strongly inhibited; also recorded: inhibited
- inhibitor of BSEP (conclusion in words) (BSEP [3]; listed as glycoursodeoxycholic acid): inhibitors of BSEP
- ATP-Dependent Uptake Activity of 3H-taurocholic acid (BSEP [3]; inhibitor 10 μM): 8.56 pmol/minute/mg protein
- Signal-to-Noise Ratio (BSEP [3]; inhibitor 10 μM): 11.9
- Uptake Activity of 3H-taurocholic acid, Mg-AMP (BSEP [3]; inhibitor 10 μM): 0.788 pmol/minute/mg protein
- Uptake Activity of 3H-taurocholic acid, Mg-ATP (BSEP [3]; inhibitor 10 μM): 9.35 pmol/minute/mg protein
- ATP-Dependent Uptake Activity of 3H-taurocholic acid (BSEP [3]; inhibitor 100 μM): 1.84 pmol/minute/mg protein
- Signal-to-Noise Ratio (BSEP [3]; inhibitor 100 μM): 2.89
- Uptake Activity of 3H-taurocholic acid, Mg-AMP (BSEP [3]; inhibitor 100 μM): 0.974 pmol/minute/mg protein
- Uptake Activity of 3H-taurocholic acid, Mg-ATP (BSEP [3]; inhibitor 100 μM): 2.81 pmol/minute/mg protein
- solubility [4, 7]: 0.1 mM (≈ 0.045 mg/mL)
- solubility [4, 8]: 50 mM (≈ 22.5 mg/mL)

Compound: O=C(O)CCCc1ccccc1 [Sodium phenylbutyrate]
- activity at 30 min, 25 μM (BSEP [1]): 77.2%
- activity at 30 min, 250 μM (BSEP [1]): 82.4%
- Uptake Activity of test article, Mg-AMP (BSEP [2]; test article 1 μM): BLQ
- Uptake Activity of test article, Mg-ATP (BSEP [2]; test article 1 μM): BLQ
- Uptake Activity of test article, Mg-AMP (BSEP [2]; [6]): BLQ
- Uptake Activity of test article, Mg-ATP (BSEP [2]; [6]): BLQ
- uptake of test article by BSEP vesicles (BSEP [2]; test article 1 and 10 μM): not detected
- substrate of BSEP (conclusion in words) (BSEP [2]; test article 1 and 10 μM): not a substrate of BSEP
- substrate of BSEP (conclusion in words) (BSEP [2]; test article 1 and 10 μM, listed as sodium phenylbutyrate): not identified as a substrate
- inhibitor of BSEP (conclusion in words) (BSEP [3]): did not meet the criteria for identification as an inhibitor; also recorded: did not inhibit
- ATP-Dependent Uptake Activity of 3H-taurocholic acid (BSEP [3]; inhibitor 25 μM): 19.3 pmol/minute/mg protein
- Signal-to-Noise Ratio (BSEP [3]; inhibitor 25 μM): 35.9
- Uptake Activity of 3H-taurocholic acid, Mg-AMP (BSEP [3]; inhibitor 25 μM): 0.554 pmol/minute/mg protein
- Uptake Activity of 3H-taurocholic acid, Mg-ATP (BSEP [3]; inhibitor 25 μM): 19.9 pmol/minute/mg protein
- ATP-Dependent Uptake Activity of 3H-taurocholic acid (BSEP [3]; inhibitor 250 μM): 20.6 pmol/minute/mg protein
- Signal-to-Noise Ratio (BSEP [3]; inhibitor 250 μM): 31.6
- Uptake Activity of 3H-taurocholic acid, Mg-AMP (BSEP [3]; inhibitor 250 μM): 0.673 pmol/minute/mg protein
- Uptake Activity of 3H-taurocholic acid, Mg-ATP (BSEP [3]; inhibitor 250 μM): 21.3 pmol/minute/mg protein
- solubility [4, 7]: 0.25 mM
- solubility [4, 8]: 50 mM
